Assay results from US6538106B1, “Compositions and methods for treating infections using analogues of indolicidin” (priority 1996, dated 2003).
“And” between values parts separate entries of the source, which are not always exact repeats. Identical values can stand only once. Like-named read-outs stand apart in the source and are kept apart here.

Legend:
Assay type in all cases: cell-based
[1] = system: P. aeruginosa; assay: Synergy assay (agarose dilution, FIC); settings: for Mupirocin Comb. MIC: MIC of Mupirocin in combination with the peptide; for Peptide Comb. MIC: MIC of peptide in combination with Mupirocin
Protocol: (§1) Briefly, one assay for in vitro anti-bacterial activity, the agarose dilution assay, is set up with an array of plates that each contain a combination of peptide analogue and antibiotic in various concentrations. The plates are inoculated with bacterial isolates, incubated, and the MICs of the components recorded. […] Antibiotics used in testing include, but are not limited to, penicillins, cephalosporins, carbacephems, cephamycins, carbapenems, monobactams, aminoglycosides, glycopeptides, quinolones, tetracyclines, macrolides, and fluoroquinolones (see Table 1 below).
(§2) Synergy is calculated according to the formula below. An FIC of ≦0.5 is evidence of synergy, although combinations with higher values may be therapeutically useful. [formula]
(§3) Treatment with a combination of peptide analogues and conventional antibiotics can have a synergistic effect. Synergy is assayed using the agarose dilution technique, where an array of plates, each containing a combination of peptide and antibiotic in a unique concentration mix, is inoculated with the bacterial isolates. Synergy is investigated for peptide analogues in combination with a number of conventional antibiotics including, but not limited to, penicillins, cephalosporins, carbapenems, monobactams, aminoglycosides, macrolides, fluoroquinolones.
(§4) Synergy is expressed as a Fractional Inhibitory Concentration (FIC), which is calculated according to the equation below. An FIC of less than or equal to 0.5 is evidence of synergy, although combinations with higher values may be therapeutically useful. [formula]

[2] = system: E. faecalis; assay: Synergy assay (agarose dilution, FIC); settings: E. faecalis EFS8; for Mupirocin Comb. MIC: MIC of Mupirocin in combination with the peptide; for Peptide Comb. MIC: MIC of peptide in combination with Mupirocin; for FIC: peptide + Mupirocin; for Peptide MIC: peptide alone
Protocol: as §1, §2, §3, §4

[3] = system: P. vulgaris; assay: Synergy assay (agarose dilution, FIC); settings: P. vulgaris SBPV1; for Mupirocin Comb. MIC: MIC of Mupirocin in combination with the peptide; for Peptide Comb. MIC: MIC of peptide in combination with Mupirocin; for FIC: peptide + Mupirocin; for Peptide MIC: peptide alone
Protocol: as §1, §2, §3, §4

[4] = system: S. aureus; assay: Synergy assay (agarose dilution, FIC); settings: for Mupirocin Comb. MIC: MIC of Mupirocin in combination with the peptide; for Peptide Comb. MIC: MIC of peptide in combination with Mupirocin; for Peptide MIC: peptide alone; for Ciprofloxacin Comb. MIC: MIC of Ciprofloxacin in combination with the peptide; for Peptide Comb MIC: MIC of peptide in combination with Ciprofloxacin
Protocol: as §1, §2
Synergy is assayed using the agarose dilution technique, where an array of plates, each containing a combination of peptide and antibiotic in a unique concentration mix, is inoculated with the bacterial isolates. Synergy is investigated for peptide analogues in combination with a number of conventional antibiotics including, but not limited to, penicillins, cephalosporins, carbapenems, monobactams, aminoglycosides, macrolides, fluoroquinolones.
as §4

[5] = system: S. marcescens; assay: Synergy assay (agarose dilution, FIC); settings: for Mupirocin Comb. MIC: MIC of Mupirocin in combination with the peptide; for Peptide Comb. MIC: MIC of peptide in combination with Mupirocin; for FIC: peptide + Mupirocin; for Peptide MIC: peptide alone
Protocol: as §1, §2, §3, §4

[6] = system: E. coli; assay: Synergy assay (agarose dilution, FIC); settings: for Mupirocin Comb. MIC: MIC of Mupirocin in combination with the peptide; for Peptide Comb. MIC: MIC of peptide in combination with Mupirocin; for FIC: peptide + Mupirocin; for Peptide MIC: peptide alone
Protocol: as §1, §2, §3, §4

[7] = system: bacteria
[8] = S. aureus SBSA3, peptide + Mupirocin
[9] = S. aureus SBSA4, peptide + Mupirocin

## C/C(=C\C(=O)OCCCCCCCCC(=O)O)C[C@@H]1OC[C@H](C[C@@H]2O[C@H]2[C@@H](C)[C@H](C)O)[C@@H](O)[C@H]1O [Mupirocin, reference compound]
[1]; P. aeruginosa PA24, Mupirocin alone
  Mupirocin MIC: >100 µg/mL
[2]; Enterococcus faecalis, Mupirocin alone
  MIC: 100 µg/mL
[3]; Proteus vulgaris, Mupirocin alone
  MIC: 3 µg/mL
[4]; Staphylococcus aureus, S. aureus SBSA5, Mupirocin alone
  MIC: 30 µg/mL

## I L K K W P W W P W K [MBI 11G13CN]
[5]; S. marcescens SBSM1
  Mupirocin Comb. MIC: >100 µg/mL
  Peptide Comb. MIC: >128 µg/mL
  FIC: 2
  Peptide MIC: >128 µg/mL
[6]; E. coli ECO5
  Mupirocin Comb. MIC: 30 µg/mL
  Peptide Comb. MIC: 8 µg/mL
  FIC: 0.43
  Peptide MIC: 64 µg/mL
[3]
  Mupirocin Comb. MIC: 3 µg/mL
  Peptide Comb. MIC: >128 µg/mL and 64 µg/mL
  FIC: 2 and 1.25
  Peptide MIC: >128 µg/mL
[4]; S. aureus SBSA3
  Mupirocin Comb. MIC: 100 µg/mL
  Peptide Comb. MIC: 64 µg/mL
  Peptide MIC: 64 µg/mL
[4]; [8]
  FIC: 2

## I L K K W P W W P W R K [MBI 11B4CN]
[5]; S. marcescens SBSM1
  Mupirocin Comb. MIC: >100 µg/mL
  Peptide Comb. MIC: >128 µg/mL
  FIC: 2
  Peptide MIC: >128 µg/mL
[6]; E. coli ECO1
  Mupirocin Comb. MIC: 10 µg/mL
  Peptide Comb. MIC: 4 µg/mL
  FIC: 0.26
  Peptide MIC: 16 µg/mL
[2]
  Mupirocin Comb. MIC: 100 µg/mL
  Peptide Comb. MIC: 64 µg/mL
  FIC: 2
  Peptide MIC: 64 µg/mL
[4]; S. aureus SBSA3
  Mupirocin Comb. MIC: 10 µg/mL
  Peptide Comb. MIC: 16 µg/mL
  Peptide MIC: 32 µg/mL
[4]; [8]
  FIC: 0.60
[4]; S. aureus SBSA4
  Mupirocin Comb. MIC: >100 µg/mL
  Peptide Comb. MIC: 8 µg/mL
  Peptide MIC: 8 µg/mL
[4]; [9]
  FIC: 2

## I L K K W P W W P W R R K [MBI 11CAN]
[7]; A. calcoaceticus AC002, listed as MBI 11ACN
  MIC: 2 µg/mL
[7]; E. coli ECO005, listed as MBI 11ACN
  MIC: 16 µg/mL
[7]; E. faecalis EFS004, listed as MBI 11ACN
  MIC: 8 µg/mL
[7]; K. pneumoniae KP001, listed as MBI 11ACN
  MIC: 16 µg/mL
[7]; S. epidermidis SE010, listed as MBI 11ACN
  MIC: 4 µg/mL
[7]; S. maltophilia SMA002, listed as MBI 11ACN
  MIC: 64 µg/mL

## I L K K Y P Y Y P Y R R K [MBI 11A3CN]
[5]; S. marcescens SBSM2
  Mupirocin Comb. MIC: >100 µg/mL
  Peptide Comb. MIC: >128 µg/mL
  FIC: 2
[6]; E. coli SBECO1
  Mupirocin Comb. MIC: 30 µg/mL
  Peptide Comb. MIC: 8 µg/mL
  FIC: 0.43
[1]; P. aeruginosa PA3
  Mupirocin Comb. MIC: >100 µg/mL
  Peptide Comb. MIC: >128 µg/mL
[1]; P. aeruginosa PA3, peptide + Mupirocin
  FIC: 2
[2]
  Mupirocin Comb. MIC: 100 µg/mL
  Peptide Comb. MIC: >128 µg/mL
  FIC: 2
[4]; S. aureus SBSA2
  Mupirocin Comb. MIC: >100 µg/mL
  Peptide Comb. MIC: 128 µg/mL
[4]; S. aureus SBSA2, peptide + Mupirocin
  FIC: 2

## K R R W V W W V W R L I [MBI 11F4CNR]
[7]; S. epidermidis SE010
  MIC: 8 µg/mL

## W R I W K P K W R L P K W [MBI 11D18CN]
[5]; S. marcescens SBSM1
  Mupirocin Comb. MIC: 30 µg/mL
  Peptide Comb. MIC: 64 µg/mL
  FIC: 0.28
  Peptide MIC: >128 µg/mL
[6]; E. coli SBECO2
  Mupirocin Comb. MIC: 10 µg/mL
  Peptide Comb. MIC: 1 µg/mL
  FIC: 0.07
  Peptide MIC: 16 µg/mL
[1]; P. aeruginosa PA2
  Mupirocin Comb. MIC: 30 µg/mL
  Peptide Comb. MIC: 64 µg/mL
[1]; P. aeruginosa PA2, peptide + Mupirocin
  FIC: 0.53
[1]; P. aeruginosa PA2, peptide alone
  Peptide MIC: 128 µg/mL
[1]; P. aeruginosa PA24, MIC of Ciprofloxacin in combination with the peptide
  Ciprofloxacin Comb. MIC: 4 µg/mL
[1]; P. aeruginosa PA24
  Mupirocin Comb. MIC: >100 µg/mL
  Peptide Comb. MIC: >128 µg/mL
[1]; P. aeruginosa PA24, MIC of peptide in combination with Ciprofloxacin
  Peptide Comb MIC: 16 µg/mL
[1]; P. aeruginosa PA24, peptide + Ciprofloxacin
  FIC: 0.31
[1]; P. aeruginosa PA24, peptide + Mupirocin
  FIC: 2
[1]; P. aeruginosa PA24, peptide alone (Ciprofloxacin table)
  Peptide MIC: >128 µg/mL
[1]; P. aeruginosa PA24, peptide alone (Mupirocin table)
  Peptide MIC: >128 µg/mL
[2]
  Mupirocin Comb. MIC: 100 µg/mL
  Peptide Comb. MIC: 16 µg/mL
  FIC: 2
  Peptide MIC: 16 µg/mL
[3]
  Mupirocin Comb. MIC: 3 µg/mL
  Peptide Comb. MIC: 4 µg/mL
  FIC: 1.13
  Peptide MIC: 32 µg/mL
[4]; S. aureus SA10
  Ciprofloxacin Comb. MIC: 32 µg/mL
  Peptide Comb MIC: 2 µg/mL
  Peptide MIC: 2 µg/mL
[4]; S. aureus SA10, peptide + Ciprofloxacin
  FIC: 2.00
[4]; S. aureus SA14
  Ciprofloxacin Comb. MIC: 8 µg/mL
  Peptide Comb MIC: 4 µg/mL
  Peptide MIC: 8 µg/mL
[4]; S. aureus SA14, peptide + Ciprofloxacin
  FIC: 1.00
[4]; S. aureus SBSA4
  Mupirocin Comb. MIC: 0.1 µg/mL
  Peptide Comb. MIC: 2 µg/mL
  Peptide MIC: 16 µg/mL
[4]; [9]
  FIC: 0.13
